Data taken from ChEMBL document CHEMBL5518246, “Discovery of Small Molecule Interleukin 17A Inhibitors with Novel Binding Mode and Stoichiometry: Optimization of DNA-Encoded Chemical Library Hits to In Vivo Active Compounds” (J Med Chem, 2024).
Converted amounts (≈) assume the structure as drawn.

Key:
[1] = Metabolic stability in human liver microsomes assessed as unbound intrinsic clearance at 0.5 uM measured after 4 hrs; assay type: ADME, Microsome
[2] = Thermodynamic solubility of the compound at pH 7.4 measured after 48 hrs by UHPLC analysis; assay type: physicochemical; conditions: buffer, read-out: Therm_solubility
[3] = Plasma clearance in iv dosed CD-1 mouse measured after 24 hrs; assay type: ADME, organism-based
[4] = Oral bioavailability in mouse at 10 mg/kg; assay type: ADME, organism-based; conditions: in vivo
[5] = Unbound plasma clearance in iv dosed CD-1 mouse measured after 24 hrs; assay type: ADME, organism-based; conditions: in vivo
[6] = Oral bioavailability in mouse at 1 mg/kg; assay type: ADME, organism-based; conditions: in vivo
[7] = Metabolic stability in rat liver microsomes assessed as unbound intrinsic clearance; assay type: ADME, Microsome
[8] = Volume of distribution at steady-state in Sprague-Dawley rat at 1 mg/kg, iv measured after 24 hrs; assay type: ADME, organism-based; conditions: in vivo, read-out: Vdss
[9] = Half life in Sprague-Dawley rat at 1 mg/kg, iv measured after 24 hrs; assay type: ADME, organism-based; conditions: in vivo
[10] = Plasma clearance in Sprague-Dawley rat at 1 mg/kg, iv measured after 24 hrs; assay type: ADME, organism-based
[11] = Unbound plasma clearance in Sprague-Dawley rat at 1 mg/kg, iv measured after 24 hrs; assay type: ADME, organism-based; conditions: in vivo
[12] = Thermodynamic solubility of the compound in FaSSIF at pH 6.5 after 48 hrs by UHPLC analysis; assay type: ADME; conditions: read-out: Therm_solubility
[13] = Drug uptake in IL17A-induced CXCL1 secretion in C57BL/6 mouse at 10 mg/kg, iv pretreated 1 hr before IL17A challenge measured after 2 hrs; assay type: ADME, organism-based; conditions: in vivo, read-out: Drug uptake

Row | CL free [1] [mL/min/kg] | solubility thermodynamic at 48 h [2] [µM] | clearance [3] [mL/min/kg] | bioavailability [4] [%] | CL free [5] [mL/min/kg] | bioavailability [6] [%] | CL free [7] [mL/min/kg] | Vd [8] [L/kg] | half-life [9] [h] | clearance [10] [mL/min/kg] | CL free [11] [mL/min/kg] | solubility thermodynamic at 48 h [12] [µg/mL] | concentration at 1 h [13] [ng/mL] | SMILES
1 | < 45 | > 1000 |  |  |  |  | < 76.7 | 5 | 3.6 | 18.3 | 102 | 460 (≈ 751 µM) | 108 | C[C@H](NC(=O)[C@]1(NC(=O)c2cc(Cl)c(Cl)[nH]2)CO[C@H](c2ccccc2)C1)c1ncc2c(n1)CN(C1CCN(C)CC1)C2
2 | < 31.7 | 60 (≈ 39.4 µg/mL) |  |  |  |  | < 53.3 | 3.2 | 1.5 | 33.3 | 250 |  | 85 | COCc1ccc([C@@H]2C[C@](NC(=O)c3cc(Cl)c(Cl)[nH]3)(C(=O)N[C@@H](C)c3ncc4c(n3)CN(C3CCN(C)CC3)C4)CO2)cc1
3 | 132 | 17 (≈ 8.78 µg/mL) |  |  |  |  | 1080 | 1.4 | 0.47 | 46.7 | 1430 | 16 (≈ 31 µM) | 190 | C[C@H](NC(=O)[C@]1(NC(=O)c2cc(Cl)c(Cl)[nH]2)CO[C@H](c2ccccc2)C1)c1ncc2c(n1)COC2
4 | < 35 | 120 (≈ 69.4 µg/mL) |  |  |  |  | < 60 | 5.9 | 3.3 | 21.7 | 48.3 | 630 (≈ 1090 µM) | 68 | C[C@H](NC(=O)[C@]1(NC(=O)c2cc(Cl)c[nH]2)CO[C@H](c2ccccc2)C1)c1ncc2c(n1)CN(C1CCN(C)CC1)C2
5 | < 36.7 | 510 (≈ 322 µg/mL) |  |  |  |  |  | 6.4 | 3.5 | 21.7 | 137 |  | 139 | C[C@H](NC(=O)[C@]1(NC(=O)c2cc(Cl)c(Cl)[nH]2)CO[C@H](c2ccc(F)cc2)C1)c1ncc2c(n1)CN(C1CCN(C)CC1)C2

The next lines start with the compound.

Row | SMILES | CL free [1] [mL/min/kg] | solubility thermodynamic at 48 h [2] [µM] | clearance [3] [mL/min/kg] | bioavailability [4] [%] | CL free [5] [mL/min/kg] | bioavailability [6] [%] | CL free [7] [mL/min/kg] | Vd [8] [L/kg] | half-life [9] [h] | clearance [10] [mL/min/kg] | CL free [11] [mL/min/kg] | solubility thermodynamic at 48 h [12] [µg/mL] | concentration at 1 h [13] [ng/mL]
6 | C[C@H](NC(=O)[C@]1(NC(=O)c2cc(Cl)c(Cl)[nH]2)CO[C@H](c2ccccc2)C1)c1cn2c(=O)n(C)cc(F)c2n1 | 61.7 | 0.82 (≈ 0.46 µg/mL) | 33.3 | 22 | 1830 |  |  |  |  |  |  |  | 
7 | O=C(N[C@@H](CCc1ccccc1)C(=O)NCc1ncc2c(n1)CCC2)c1cc(Cl)c(Cl)[nH]1 | 1100 | 27 (≈ 12.8 µg/mL) |  |  |  |  |  |  |  |  |  |  | 
8 | C[C@H](NC(=O)[C@H](CCc1ccccc1)NC(=O)c1cc(Cl)c(Cl)[nH]1)c1cn2c(=O)n(C)cc(F)c2n1 | 163 | 4.5 (≈ 2.4 µg/mL) | 45 |  | 4830 | 1.6 |  |  |  |  |  |  | 
9 | O=C(N[C@@H](CCc1ccccc1)C(=O)NCc1ncc(C2CCOCC2)cn1)c1cc(Cl)c(Cl)[nH]1 | 333 | 2.5 (≈ 1.29 µg/mL) |  |  |  |  |  |  |  |  |  |  | 
10 | CN1Cc2cnc(CNC(=O)[C@H](CCc3ccccc3)NC(=O)c3cc(Cl)c(Cl)[nH]3)nc2C1 | 140 | 1.8 (≈ 0.877 µg/mL) |  |  |  |  |  |  |  |  |  |  | 
11 | O=C(N[C@@H](CCc1ccccc1)C(=O)NCc1ncc2c(n1)COC2)c1cc(Cl)c(Cl)[nH]1 | 183 | 8 (≈ 3.79 µg/mL) |  |  |  |  |  |  |  |  |  |  | 
